Where “and” joins values, the source holds several entries; their conditions need not be identical. Equal entries are not always repeated. Toxic doses and inconclusive results are not listed.
Tested on: P388 leukemia ip, CD2F1 mice, survival T/C
Assay: NCI In Vivo Anticancer Drug Screen. Data for tumor model P388 Leukemia (intraperitoneal) in CD2F1 (CDF1) mice
Conditions: endpoint: median survival time, higher = longer survival
How it was run: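 Mice carrying the transplanted tumor received test compound or vehicle. Survival was recorded in each group, and the value is the treated-group measurement divided by that of the vehicle-treated control group.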

[1] = dose: 25.0 mg/kg/injection, schedule: Q01DX009 (ip), vehicle: saline with Tween-80
[2] = dose: 50.0 mg/kg/injection, schedule: Q01DX009 (ip), vehicle: saline with Tween-80
[3] = dose: 100.0 mg/kg/injection, schedule: Q01DX009 (ip), vehicle: saline with Tween-80
[4] = dose: 200.0 mg/kg/injection, schedule: Q01DX009 (ip), vehicle: saline with Tween-80
[5] = dose: 50.0 mg/kg/injection, schedule: Q01DX005 (ip), vehicle: Klucel (hydroxypropylcellulose) (HPC)
[6] = dose: 100.0 mg/kg/injection, schedule: Q01DX005 (ip), vehicle: Klucel (hydroxypropylcellulose) (HPC)
[7] = dose: 50.0 mg/kg/injection, schedule: Q01DX005 (ip), vehicle: saline with Tween-80
[8] = dose: 100.0 mg/kg/injection, schedule: Q01DX005 (ip), vehicle: saline with Tween-80
[9] = dose: 100.0 mg/kg/injection, schedule: Q04DX003 (ip), vehicle: saline with Tween-80
[10] = dose: 200.0 mg/kg/injection, schedule: Q04DX003 (ip), vehicle: saline with Tween-80
[11] = dose: 400.0 mg/kg/injection, schedule: Q04DX003 (ip), vehicle: saline with Tween-80
[12] = dose: 400.0 mg/kg/injection, schedule: Q01DX009 (ip), vehicle: saline with Tween-80
[13] = dose: 50.0 mg/kg/injection, schedule: Q01DX009 (ip), vehicle: Klucel (hydroxypropylcellulose) (HPC)
[14] = dose: 100.0 mg/kg/injection, schedule: Q01DX009 (ip), vehicle: Klucel (hydroxypropylcellulose) (HPC)
[15] = dose: 60.0 mg/kg/injection, schedule: Q01DX005 (ip), vehicle: Klucel (hydroxypropylcellulose) (HPC)
[16] = dose: 120.0 mg/kg/injection, schedule: Q01DX005 (ip), vehicle: Klucel (hydroxypropylcellulose) (HPC)
[17] = dose: 12.5 mg/kg/injection, schedule: Q01DX005 (ip), vehicle: saline with Tween-80
[18] = dose: 25.0 mg/kg/injection, schedule: Q01DX005 (ip), vehicle: saline with Tween-80
[19] = dose: 200.0 mg/kg/injection, schedule: Q01DX005 (ip), vehicle: saline with Tween-80
[20] = dose: 12.5 mg/kg/injection, schedule: Q01DX009 (ip), vehicle: saline with Tween-80
[21] = dose: 200.0 mg/kg/injection, schedule: Q01DX005 (ip), vehicle: Klucel (hydroxypropylcellulose) (HPC)

CCOC(=O)c1c[nH][nH]c1=O
T/C [1]: 95 % of control | T/C [2]: 93 % of control | T/C (dose: 100.0 mg/kg/injection, schedule: Q01DX001 (ip), vehicle: saline with Tween-80): 98 % of control | T/C [3]: 101 % of control | T/C (dose: 200.0 mg/kg/injection, schedule: Q01DX001 (ip), vehicle: saline with Tween-80): 106 % of control | T/C [4]: 100 % of control | T/C (dose: 400.0 mg/kg/injection, schedule: Q01DX001 (ip), vehicle: saline with Tween-80): 94 % of control

Cn1c(=O)oc2cc([N+](=O)[O-])c(Cl)cc21
T/C [5]: 95 % of control | T/C [6]: 92 % of control

CCOC(=O)Nc1cc(NC/C(CN(C)c2ccc(OC)cc2)=N/O)c([N+](=O)[O-])c(N)n1
T/C [7]: 86 % of control | T/C [8]: 86 % of control

NS(=O)(=O)c1ccc(Cl)c(Cl)c1
T/C [9]: 90 % of control | T/C [10]: 90 % of control | T/C [11]: 90 % of control

CC1(c2cccs2)NC(=O)NC1=O (configuration not stated)
T/C [1]: 100 % of control | T/C [2]: 109 % of control | T/C [3]: 98 % of control | T/C [4]: 104 % of control | T/C [12]: 101 % of control

O=C(O)c1ccc(N=NNc2ccc(C(=O)O)cc2)cc1
T/C [13]: 96 % of control | T/C [14]: 99 % of control | T/C (dose: 200.0 mg/kg/injection, schedule: Q01DX009 (ip), vehicle: Klucel (hydroxypropylcellulose) (HPC)): 95 % of control | T/C (dose: 400.0 mg/kg/injection, schedule: Q01DX009 (ip), vehicle: Klucel (hydroxypropylcellulose) (HPC)): 96 % of control

COc1ccc(C(c2cc3c(cc2O)OCO3)N2CCCC2)cc1 (configuration not stated)
T/C [15]: 100 % of control | T/C [16]: 100 % of control

CCOC(=O)C(C(=O)OCC)C1CCS(=O)(=O)C1 (configuration not stated)
T/C [3]: 109 % of control | T/C [4]: 104 % of control | T/C [12]: 104 % of control

COc1ccc2[nH]c(=O)c(C#N)c(C)c2c1
T/C [17]: 95 % of control | T/C [18]: 91 % of control | T/C [7]: 104 % of control and 91 % of control

c1ccc2c(c1)Cc1c-2nc2ccccc2c1N1CCOCC1
T/C [18]: 100 % of control | T/C [7]: 106 % of control and 93 % of control | T/C [8]: 103 % of control and 112 % of control | T/C [19]: 119 % of control

CSCc1ccc(Cl)cc1N (tested in a mixture with another compound)
T/C [1]: 103 % of control | T/C [2]: 106 % of control | T/C [3]: 106 % of control

C[n+]1ccc(CC(Cc2cc[n+](C)cc2)c2ccc(Br)cc2)cc1
T/C (dose: 6.25 mg/kg/injection, schedule: Q01DX009 (ip), vehicle: Klucel (hydroxypropylcellulose) (HPC)): 110 % of control | T/C (dose: 12.5 mg/kg/injection, schedule: Q01DX009 (ip), vehicle: Klucel (hydroxypropylcellulose) (HPC)): 110 % of control | T/C (dose: 25.0 mg/kg/injection, schedule: Q01DX009 (ip), vehicle: Klucel (hydroxypropylcellulose) (HPC)): 108 % of control

CCCCN(CCCC)CCCOC(=O)c1ccc2oc3ccc(C(=O)OCCCN(CCCC)CCCC)cc3c2c1
T/C [2]: 96 % of control | T/C [3]: 103 % of control

C=C/C(C)=C/[C@H](C)C(=O)C[C@H](O)CC1CC(=O)NC(=O)C1
T/C (dose: 6.25 mg/kg/injection, schedule: Q01DX009 (ip), vehicle: saline with Tween-80): 102 % of control | T/C (dose: 6.25 mg/kg/injection, schedule: Q04DX003 (ip), vehicle: saline with Tween-80): 111 % of control | T/C [20]: 118 % of control | T/C (dose: 12.5 mg/kg/injection, schedule: Q04DX003 (ip), vehicle: saline with Tween-80): 108 % of control | T/C [1]: 155 % of control | T/C (dose: 25.0 mg/kg/injection, schedule: Q04DX003 (ip), vehicle: saline with Tween-80): 111 % of control | T/C (dose: 35.0 mg/kg/injection, schedule: Q01DX009 (ip), vehicle: saline with Tween-80): 151 % of control | T/C [2]: 150 % of control | T/C (dose: 50.0 mg/kg/injection, schedule: Q04DX003 (ip), vehicle: saline with Tween-80): 111 % of control | T/C (dose: 75.0 mg/kg/injection, schedule: Q01DX009 (ip), vehicle: saline with Tween-80): 168 % of control | T/C (dose: 75.0 mg/kg/injection, schedule: Q01DX009 (ip), vehicle: saline): 158 % of control | T/C [9]: 121 % of control | T/C (dose: 150.0 mg/kg/injection, schedule: Q01DX009 (ip), vehicle: saline): 106 % of control | T/C [10]: 101 % of control and 121 % of control

O=c1[nH]cnc2n[nH]nc12
T/C [20]: 107 % of control | T/C [1]: 100 % of control | T/C [2]: 117 % of control | T/C [3]: 109 % of control | T/C [4]: 121 % of control

C[C@]12CCC(=O)C=C1CC[C@@H]1[C@@H]2[C@@H](O)C[C@@]2(C)[C@H]1CC[C@]2(O)C(=O)CF
T/C [3]: 100 % of control | T/C [9]: 109 % of control | T/C [4]: 100 % of control | T/C [10]: 109 % of control | T/C [12]: 100 % of control | T/C [11]: 109 % of control

c1ccc(Nc2nnc(-c3ccc4c(c3)OCO4)o2)cc1
T/C [5]: 91 % of control | T/C [6]: 92 % of control | T/C [21]: 100 % of control

COc1ccc2c(c1)OC(C)(C)C(c1ccccc1)=C2c1ccc2c(c1)NC(=O)CO2
T/C [7]: 99 % of control | T/C [8]: 90 % of control | T/C [19]: 94 % of control

Cn1c2c(c3ccccc31)-c1ncncc1CC2
T/C (dose: 50.0 mg/kg/injection, schedule: Q01DX005 (ip), vehicle: saline + Tween-80 + alcohol): 106 % of control | T/C (dose: 100.0 mg/kg/injection, schedule: Q01DX005 (ip), vehicle: saline + Tween-80 + alcohol): 92 % of control | T/C (dose: 200.0 mg/kg/injection, schedule: Q01DX005 (ip), vehicle: saline + Tween-80 + alcohol): 103 % of control

COc1ccc(-n2nc3c(ccc4ccccc43)c2NC2CCCCC2)cc1
T/C (dose: 60.0 mg/kg/injection, schedule: Q01DX005 (ip), vehicle: saline with Tween-80): 104 % of control | T/C (dose: 120.0 mg/kg/injection, schedule: Q01DX005 (ip), vehicle: saline with Tween-80): 98 % of control | T/C (dose: 240.0 mg/kg/injection, schedule: Q01DX005 (ip), vehicle: saline with Tween-80): 102 % of control

CC1CN(C2CCCCC2)CO1 (configuration not stated)
T/C (dose: 12.5 mg/kg/injection, schedule: Q01DX005 (ip), vehicle: saline): 104 % of control and 105 % of control | T/C (dose: 25.0 mg/kg/injection, schedule: Q01DX005 (ip), vehicle: saline): 104 % of control and 112 % of control | T/C (dose: 50.0 mg/kg/injection, schedule: Q01DX005 (ip), vehicle: saline): 117 % of control and 118 % of control and 124 % of control | T/C (dose: 100.0 mg/kg/injection, schedule: Q01DX005 (ip), vehicle: saline): 121 % of control and 124 % of control | T/C (dose: 200.0 mg/kg/injection, schedule: Q01DX005 (ip), vehicle: saline): 109 % of control

COC(=O)C12CC(CCC1C13CC=CC(C)(C)C1C(=O)OC3)C(C)C2=O (configuration not stated)
T/C (dose: 100.0 mg/kg/injection, schedule: Q04DX002 (ip), vehicle: saline with Tween-80): 92 % of control | T/C (dose: 200.0 mg/kg/injection, schedule: Q04DX002 (ip), vehicle: saline with Tween-80): 95 % of control | T/C (dose: 400.0 mg/kg/injection, schedule: Q04DX002 (ip), vehicle: saline with Tween-80): 103 % of control

CC(C)CN=C1NS(=O)(=O)c2ccccc21
T/C [7]: 100 % of control | T/C [8]: 101 % of control | T/C [19]: 101 % of control

CCCCOC(=O)C(CC)c1ccccc1 (configuration not stated)
T/C [9]: 114 % of control | T/C [10]: 114 % of control | T/C [11]: 112 % of control

CC[N+](CC)=c1ccc2nc3c(cc(NCc4ccccc4)c4ccccc43)oc-2c1
T/C [17]: 103 % of control | T/C [18]: 100 % of control | T/C [7]: 105 % of control and 107 % of control

O=c1[nH]nnc2ccccc12
T/C [13]: 105 % of control | T/C [14]: 114 % of control

Cn1c2c(c(=O)n(C)c1=O)CN(Cc1ccccc1)CN2
T/C [7]: 95 % of control | T/C [8]: 95 % of control | T/C [19]: 100 % of control

CCC1SC2=NCCN2C1(O)c1ccc(Cl)cc1 (configuration not stated)
T/C [15]: 96 % of control | T/C [16]: 95 % of control | T/C (dose: 240.0 mg/kg/injection, schedule: Q01DX005 (ip), vehicle: Klucel (hydroxypropylcellulose) (HPC)): 89 % of control

Cc1cc(Br)c(O)c(C(=NCC(C)N=C(c2ccccc2)c2cc(C)cc(Br)c2O)c2ccccc2)c1 (configuration not stated)
T/C (dose: 25.0 mg/kg/injection, schedule: Q01DX005 (ip), vehicle: Klucel (hydroxypropylcellulose) (HPC)): 100 % of control | T/C [5]: 96 % of control | T/C [6]: 100 % of control | T/C [21]: 96 % of control

O=NC1C2CCC(C2)C1N=O.[Co].[c-]1[c-][c-][cH-][c-]1 (configuration not stated)
T/C [17]: 96 % of control | T/C [18]: 98 % of control | T/C [7]: 98 % of control and 92 % of control

— PubChem BioAssay AID330 (DTP/NCI, 2004)
